Results as given in patent publication US20240216319A1, “TUMOR SUPPRESSANT AND PAIN RELIEF COMPOSITION FOR ORAL ADMINISTRATION” (priority 2022, published 2024).

Tested on: bladder cancer
Details: bladder cancer subject on chemotherapy

For `C=C(C)[C@H]1CC=C(C)CC1` [d-limonene], the “reduction of tumor size at subsequent surgical procedure” value (earlier tumors 3 cm to 5 cm, then millimeter-sized) was “about 10 foled” and the “tumor morphology at subsequent surgical procedure” value (tumors still present) was “ill-defined and amorphous”.
